Biological target: Human LDHA (Homo sapiens (Human), UniProt P00338)
Assay: human LDHA primary biochemical assay (resazurin/diaphorase coupled, fluorescence)
Settings: LDHA inhibitory activity, activity level based on IC50 (Table 7)
Description: Test compounds were placed in a Greiner Bio-One (Monroe, N.C.) 1536-well black solid bottom assay plate. 200 millimolar (mM) Tris HCl, pH 7.4, 100 micromolar […] EDTA and 0.01% TWEEN-20™, final concentration, was used as the assay buffer. The LDHA reagent was 2 nanomolar (nM) Human LDHA (Meridian Life Science, Inc., Memphis, Tenn.), final concentration, in assay buffer.

SMILES | IC50
NS(=O)(=O)c1ccc(Cc2c(-c3cccc(OCc4ccccc4)c3)nn(-c3nc(C(=O)O)cs3)c2CC2CC2)cc1 [Compound 339] | < 100 nM
NS(=O)(=O)c1ccc(Cc2c(-c3cccc(OCc4ccccc4)c3)nn(-c3nc(C(=O)O)cs3)c2CC2CC2)cc1F [Compound 340] | < 100 nM
NS(=O)(=O)c1ccc(Cc2c(-c3cccc(OCc4ccccc4)c3)nn(-c3nc(C(=O)O)cs3)c2CC2CC2)c(F)c1 [Compound 341] | < 100 nM
N[S+](=O)([O-])c1ccc(Cc2c(CC3CC3)nn(-c3nc(C(=O)O)cs3)c2-c2cccc(OCc3ccccc3)c2)cc1 [Compound 342] | 1000 to 57000 nM
CCOC(=O)c1csc(-n2nc(-c3ccc(F)c(-c4ccc(C)cc4)c3)c(Cc3ccc(S(N)(=O)=O)c(F)c3)c2CC2CC2)n1 [Compound 343] | 1000 to 57000 nM
CCOC(=O)c1csc(-n2nc(-c3cccc(-c4ccc(C)cc4)c3)c(Cc3ccc(S(N)(=O)=O)cc3F)c2CC2CC2)n1 [Compound 344] | > 57000 nM
CCOC(=O)c1csc(-n2nc(-c3ccc(F)c(-c4ccc(F)cc4)c3)c(Cc3ccc(S(N)(=O)=O)cc3F)c2CC2CC2)n1 [Compound 345] | 1000 to 57000 nM
Cc1ccc(-c2cccc(-c3c(Cc4ccc([S+](N)(=O)[O-])c(F)c4)c(C4CC4)nn3-c3nc(C(=O)O)cs3)c2)cc1 [Compound 346] | 1000 to 57000 nM
Cc1ccc(-c2cccc(-c3nn(-c4nc(C(=O)O)cs4)c(C4CC4)c3Cc3ccc(S(N)(=O)=O)c(F)c3)c2)cc1 [Compound 347] | < 100 nM
N[S+](=O)([O-])c1ccc(Cc2c(C3CC3)nn(-c3nc(C(=O)O)cs3)c2-c2cccc(-c3ccc(F)cc3)c2)cc1F [Compound 348] | 1000 to 57000 nM
NS(=O)(=O)c1ccc(Cc2c(-c3cccc(-c4ccc(F)cc4)c3)nn(-c3nc(C(=O)O)cs3)c2C2CC2)cc1F [Compound 349] | < 100 nM
N[S+](=O)([O-])c1ccc(Cc2c(C3CC3)nn(-c3nc(C(=O)O)cs3)c2-c2cccc(-c3cccc(F)c3)c2)cc1F [Compound 350] | 1000 to 57000 nM
NS(=O)(=O)c1ccc(Cc2c(-c3cccc(-c4cccc(F)c4)c3)nn(-c3nc(C(=O)O)cs3)c2C2CC2)cc1F [Compound 351] | < 100 nM
COc1cccc(-c2cccc(-c3c(Cc4ccc([S+](N)(=O)[O-])c(F)c4)c(C4CC4)nn3-c3nc(C(=O)O)cs3)c2)c1 [Compound 352] | 1000 to 57000 nM
COc1cccc(-c2cccc(-c3nn(-c4nc(C(=O)O)cs4)c(C4CC4)c3Cc3ccc(S(N)(=O)=O)c(F)c3)c2)c1 [Compound 353] | < 100 nM
Cc1ccc(-c2cccc(-c3c(Cc4ccc(S(N)(=O)=O)cc4F)c(C4CC4)nn3-c3nc(C(=O)O)cs3)c2)cc1 [Compound 354] | 1000 to 57000 nM
Cc1ccc(-c2cccc(-c3nn(-c4nc(C(=O)O)cs4)c(C4CC4)c3Cc3ccc(S(N)(=O)=O)cc3F)c2)cc1 [Compound 355] | < 100 nM
NS(=O)(=O)c1ccc(Cc2c(C3CC3)nn(-c3nc(C(=O)O)cs3)c2-c2cccc(-c3ccc(F)cc3)c2)c(F)c1 [Compound 356] | 1000 to 57000 nM
NS(=O)(=O)c1ccc(Cc2c(-c3cccc(-c4ccc(F)cc4)c3)nn(-c3nc(C(=O)O)cs3)c2C2CC2)c(F)c1 [Compound 357] | < 100 nM
NS(=O)(=O)c1ccc(Cc2c(C3CC3)nn(-c3nc(C(=O)O)cs3)c2-c2cccc(-c3cccc(F)c3)c2)c(F)c1 [Compound 358] | 1000 to 57000 nM
NS(=O)(=O)c1ccc(Cc2c(-c3cccc(-c4cccc(F)c4)c3)nn(-c3nc(C(=O)O)cs3)c2C2CC2)c(F)c1 [Compound 359] | < 100 nM
COc1cccc(-c2cccc(-c3c(Cc4ccc(S(N)(=O)=O)cc4F)c(C4CC4)nn3-c3nc(C(=O)O)cs3)c2)c1 [Compound 360] | 1000 to 57000 nM
COc1cccc(-c2cccc(-c3nn(-c4nc(C(=O)O)cs4)c(C4CC4)c3Cc3ccc(S(N)(=O)=O)cc3F)c2)c1 [Compound 361] | < 100 nM

SMILES | IC50
Cc1ccc(-c2cc(-c3nn(-c4nc(C(=O)O)cs4)c(CC4CC4)c3Cc3ccc(S(N)(=O)=O)c(F)c3)ccc2F)cc1 [Compound 362] | < 100 nM
Cc1ccc(-c2cccc(-c3nn(-c4nc(C(=O)O)cs4)c(CC4CC4)c3Cc3ccc(S(N)(=O)=O)cc3F)c2)cc1 [Compound 363] | < 100 nM
N[S+](=O)([O-])c1ccc(Cc2c(-c3ccc(F)c(-c4ccc(F)cc4)c3)nn(-c3nc(C(=O)O)cs3)c2CC2CC2)c(F)c1 [Compound 364] | < 100 nM
NS(=O)(=O)c1ccc(Cc2c(-c3cccc(N4CCC(C(F)(F)F)CC4)c3)nn(-c3nc(C(=O)O)cs3)c2CC2CC2)cc1F [Compound 392] | < 100 nM
COc1ccc(-c2cc(O)n(-c3nc(C(=O)O)cs3)n2)cc1 [Compound 424] | > 57000 nM
O=C(O)c1csc(-n2nc(-c3ccc(F)cc3)cc2O)n1 [Compound 425] | > 57000 nM
O=C(O)c1csc(-n2nc(-c3ccc(Cl)cc3)cc2C(F)(F)F)n1 [Compound 427] | 1000 to 57000 nM
Cc1oc(=O)oc1COC(=O)c1csc(-n2nc(-c3ccc(F)c(C#CC4CCCC4)c3)c(Cc3ccc(S(N)(=O)=O)c(F)c3)c2CC2CC2)n1 [Compound 441] | > 57000 nM
CCOC(=O)c1csc(-n2nc(-c3ccc(F)c(C#Cc4ccc(C)s4)c3)c(Cc3ccc(S(N)(=O)=O)c(F)c3)c2CC2CC2)n1 [Compound 447] | > 57000 nM
CC(C)(C)/C=C/c1cc(-c2nn(-c3nc(C(=O)O)cs3)c(CC3CC3)c2Cc2ccc([S+](N)(=O)[O-])c(F)c2)ccc1F [Compound 448] | < 100 nM
Cc1ccc(C#Cc2cccc(-c3nn(-c4nc(C(=O)O)cs4)c(CC4CC4)c3Cc3ccc(S(N)(=O)=O)c(F)c3)c2)s1 [Compound 449] | < 100 nM
C/C=C(\C)c1cc(-c2nn(-c3nc(C(=O)O)cs3)c(CC3CC3)c2Cc2ccc(S(N)(=O)=O)c(F)c2)ccc1F [Compound 450] | < 100 nM
NS(=O)(=O)c1ccc(Cc2c(-c3cccc4ccccc34)nn(-c3nc(C(=O)O)cs3)c2O)cc1 [Compound 451] | 1000 to 57000 nM
NS(=O)(=O)c1ccc(Cc2c(-c3cccnc3)nn(-c3nc(C(=O)O)cs3)c2O)cc1 [Compound 453, 2-(5-hydroxy-3-(pyridin-3-yl)-4-(4-sulfamoylbenzyl)-1H-pyrazol-1-yl)thiazole-4-carboxylic acid] | 1000 to 57000 nM
NS(=O)(=O)c1ccc(Cc2c(-c3cccc4cc(F)ccc34)nn(-c3nc(C(=O)O)cs3)c2O)cc1 [Compound 454, 2-(3-(6-fluoronaphthalen-1-(57%)yl)-5-hydroxy-4-(4-sulfamoylbenzyl)-1H-pyrazol-1-yl)thiazole-4-carboxylic acid] | 1000 to 57000 nM
COc1c(Cc2ccc(S(N)(=O)=O)cc2)c(-c2ccc(F)c(F)c2)nn1-c1nc(C(=O)O)cs1 [Compound 455, 2-(3-(3,4-difluorophenyl)-5-methoxy-4-(4-sulfamoylbenzyl)-1H-pyrazol-1-yl)thiazole-4-carboxylic acid] | 100 to 1000 nM
COc1cccc(-c2cc(-c3nn(-c4nc(C(=O)O)cs4)cc3Cc3ccc(S(N)(=O)=O)cc3)ccc2F)c1 [Compound 456, 2-(3-(6-fluoro-3′-methoxy-[1,1′-biphenyl]-3-yl)-4-(4-sulfamoylbenzyl)-1H-pyrazol-1-yl)thiazole-4-carboxylic acid] | < 100 nM
NS(=O)(=O)c1ccc(Cc2cn(-c3nc(C(=O)O)cs3)nc2-c2ccc(F)c(-c3cccc(Cl)c3)c2)cc1 [Compound 457, 2-(3-(3′-chloro-6-fluoro-[1,1′-biphenyl]-3-yl)-4-(4-sulfamoylbenzyl)-1H-pyrazol-1-yl)thiazole-4-carboxylic acid] | < 100 nM
CC(C)Oc1cccc(-c2nn(-c3nc(C(=O)O)cs3)cc2Cc2ccc(S(N)(=O)=O)cc2)c1 [Compound 459, 2-(3-(3-isopropoxyphenyl)-4-(4-sulfamoylbenzyl)-1H-pyrazol-1-yl)thiazole-4-carboxylic acid] | < 100 nM
NS(=O)(=O)c1ccc(Cc2cn(-c3nc(C(=O)O)cs3)nc2-c2cccc(OC3CCCC3)c2)cc1 [Compound 460, 2-(3-(3-(cyclopentyloxy)phenyl)-4-(4-sulfamoylbenzyl)-1H-pyrazol-1-yl)thiazole-4-carboxylic acid] | < 100 nM
NS(=O)(=O)c1ccc(Cc2cn(-c3nc(C(=O)O)cs3)nc2-c2cccc(OCC3CCOC3)c2)cc1 (stereo not shown) [Compound 461, 2-(4-(4-sulfamoylbenzyl)-3-(3-((tetrahydrofuran-3-yl)methoxy)phenyl)-1H-pyrazol-1-yl)thiazole-4-carboxylic acid] | < 100 nM
COc1cccc(COc2cccc(-c3nn(-c4nc(C(=O)O)cs4)cc3Cc3ccc(S(N)(=O)=O)cc3)c2)c1 [Compound 462, 2-(3-(3-((3-methoxybenzyl)oxy)phenyl)-4-(4-sulfamoylbenzyl)-1H-pyrazol-1-yl)thiazole-4-carboxylic acid] | < 100 nM

Same assay, conditions: LDHA inhibitory activity, assay of Example 1; activity level classes

SMILES | IC50
CCOC(=O)c1csc(-n2nc(-c3ccc(F)c(-c4cccc(OC)c4)c3)c(Cc3ccc(S(N)(=O)=O)c(F)c3)c2CC2CC2)n1 [Compound 322] | 1000 to 57000 nM
N[S+](=O)([O-])c1ccc(Cc2c(CC3CC3)nn(-c3nc(C(=O)O)cs3)c2-c2ccc(F)c(-c3cccc(F)c3)c2)cc1F [Compound 325] | 1000 to 57000 nM
COc1cccc(-c2cc(-c3nn(-c4nc(C(=O)O)cs4)c(CC4CC4)c3Cc3ccc(S(N)(=O)=O)cc3F)ccc2F)c1 [Compound 328] | < 100 nM
CCOC(=O)c1csc(-n2nc(-c3cccc(OC4CCCC4)c3)c(Cc3ccc(S(N)(=O)=O)c(F)c3)c2CC2CC2)n1 [Compound 333] | 1000 to 57000 nM
CCOC(=O)c1csc(-n2nc(-c3cccc(OC4CCCC4)c3)c(Cc3ccc(S(N)(=O)=O)cc3F)c2CC2CC2)n1 [Compound 335] | 1000 to 57000 nM

Same assay, conditions: read-out: Inhibitory activity IC50

SMILES | IC50
N[S+](=O)([O-])c1ccc(Cc2c(CC3CC3)nn(-c3nc(C(=O)O)cs3)c2-c2ccc(F)c(-c3cccc(F)c3)c2)c(F)c1 [Compound 323] | 1000 to 57000 nM
COc1cccc(-c2cc(-c3c(Cc4ccc([S+](N)(=O)[O-])c(F)c4)c(CC4CC4)nn3-c3nc(C(=O)O)cs3)ccc2F)c1 [Compound 329] | 1000 to 57000 nM
